Reference: patent US5252495A, “Immunoassay for physostigmine” (priority 1992, dated 1993)
Where a name gives a salt, the structure may show the parent alone.

Legend:
[1] = target: Antibody from Diazo-coupled Immunogen; experiment: RIA cross-reactivity: competition with labeled physostigmine for antibody from diazo-coupled immunogen; assay type: binding, New Zealand white rabbits; details: 1:150, max 1000 ng tested
Protocol: (§1) Antibodies to the physostigmine-BSA immunogen were produced by injecting male New Zealand white rabbits with immunogens formed by either method. Prior to injection, the immunogen was emulsified with an equal volume of complete Freund's adjuvant, purchased from Difco Laboratories of Detroit, Mich. The initial immunization consisted of 0.8 mg of protein injected intracutaneously in multiple dorsal sites of the rabbits. Booster injections containing 0.8 mg of immunogen and incomplete Freund's adjuvant were administered every two months for the next six months. Antisera was collected one week after each booster injection from the central ear vein. The blood was allowed to clot at room temperature and then centrifuged at 1500×g for 15 minutes. The separated serum was stored frozen at -20° C. until assayed for the presence of physostigmine antibody.
(§2) In the assay procedure ^3 H-Physostigmine having specificity of 19.0 Ci/mmole and purchased from the Amersham Corp. of Arlington Heights, Ill., was used as tracer. The dilution of tracer (5000 dpm), antibody (1:150) and physostigmine standards (100-10,000 pg) were made using 0.01M phosphate buffer containing 150 mM sodium chloride with a pH of 7.4. […] Both standard and sample tubes were always analyzed in duplicate. The assay was carried out according to the protocol shown in Table 1 with the reagents were added to the assay tubes in the order shown.
(§3) According to the protocol for the RIA of the present invention, after the addition of antisera, the contents of the tubes were mixed and incubated for 3 hours at 4° C. The antigen which bound to the antibody was separated by adding saturated ammonium sulfate and centrifuging at 2500×g for 15 minutes. After aspiration of the supernatant, the precipitate was washed one time with 50% saturated ammonium sulfate; then the mixture was centrifuged and the supernatent removed. The precipitate was dissolved in 1.0 ml of distilled water, and the solution was transferred to a scintillation vial containing 10.0 ml of acquasol 2.
(§4) The radioactivity which was bound to the antibody was determined in counts per minute with a Beckman LS-3133P Liquid Scintillation Counter. […] The concentration of physostigmine is plotted on the horizontal axis, while the percent inhibition of binding radioactively labeled is plotted on the vertical axis. […] Concentrations of physostigmine in unknown samples were determined according to conventional calculations from the standard curve.
(§5) Competition of the compounds with labeled physostigmine (5000 dpm) for antibody binding sites was determined arbitrarily at 50% inhibition of the physostigmine on the standard curve. Each compound was tested for cross-reactivity with the antibody. The maximum concentration of each compound tested was 1000 ng.

[2] = target: Antibody from Mannich Immunogen; experiment: RIA cross-reactivity: competition with labeled physostigmine for antibody from Mannich immunogen; assay type: binding, New Zealand white rabbits; details: 1:100, max 1000 ng tested
Protocol: as §1
In the assay procedure ^3 H-Physostigmine having specificity of 19.0 Ci/mmole and purchased from the Amersham Corp. of Arlington Heights, Ill., was used as tracer. […] Both standard and sample tubes were always analyzed in duplicate. The assay was carried out according to the protocol shown in Table 1 with the reagents were added to the assay tubes in the order shown.
as §3, §4, §5

[3] = test system: antibodies to physostigmine; experiment: Specificity of the antibodies to physostigmine (both antibodies; RIA, HPLC-RIA); assay type: binding, New Zealand white rabbits; details: for binding to the antibodies: RIA
Protocol: as §1
as §2, with “The assay was carried out according to the protocol shown in Table 1 with the reagents were added to the assay tubes in the order shown.” left out
The HPLC system consisted of Waters Associates liquid chromatograph equipped with a 6000 A solvent delivery system, a Model 441 absorbance detector, a U6K injector, a model 720 system controller, an Omni Scribe recorder (Houston Instruments, Houston, Tex.), a model cygnet Fraction collector (ISCO, Lincoln, Nebr.).
High pressure liquid chromatography (HPLC) was performed using a model C18 u Bondapak column (30 cm×0.39 cm. lid) (waters). The Uv detector was fixed at 245 nm with range set at 0.005 absorbance units full scale and flow rate of the mobile phase adjusted to 2 ml/min. […]
The column was operated at ambient temperature. […] Each residue was then reconstituted using the assay buffer and was analyzed for physostigmine by the RIA. […]

[4] = cited from earlier work

| Compound | IC50 (50% inhibition of binding of 3H-physostigmine) [1] | IC50 (50% inhibition of binding of 3H-physostigmine) [2] | other results |
| --- | --- | --- | --- |
| COc1ccc2[nH]cc(CCNC(C)=O)c2c1 [Melatonin] | > 1000 ng | > 1000 ng | – |
| C[n+]1ccccc1C=NO [Paralidoxime] | > 1000 ng | > 1000 ng | – |
| NCCc1c[nH]c2ccc(O)cc12 [Serotonin] | > 1000 ng | > 1000 ng | – |
| CN1CCC2(C)c3cc4nc5c(=O)c6c(cc-5oc4cc3N(C)C12)N(C)C1N(C)CCC61C (centres unmarked) [Eserine blue] | 600 ng | 575 ng | – |
| COc1ccc2c(c1)c(CC(=O)O)c(C)n2C(=O)c1ccc(Cl)cc1 [Indomethacin] | > 1000 ng | > 1000 ng | – |
| CN1CC[C@@]2(C)C3=CC(=O)C(=O)C=C3N(C)[C@@H]12 [Rubreserine] | 224 ng | 248 ng | – |
| Eserine brown | 550 ng | 625 ng | – |
| CN1CC[C@@]2(C)c3cc(O)ccc3N(C)[C@@H]12 [Eseroline, eseroline] | 200 ng | 200 ng | amount required to displace radioactive physostigmine from the antibodies, relative to physostigmine [3]: ~150 times |
| CN(C)C(=O)Oc1cccc([N+](C)(C)C)c1 [Neostigmine] | > 1000 ng | > 1000 ng | binding to the antibodies [3]: did not bind to the antibodies |
| CN(C)C(=O)Oc1ccc[n+](C)c1 [Pyridostigmine] | > 1000 ng | > 1000 ng | binding to the antibodies [3]: did not bind to the antibodies |
| CNC(=O)Oc1ccc2c(c1)[C@]1(C)CCN(C)[C@@H]1N2C [Physostigmine salts] | – | – | stability in alkaline solutions ([4]; alkaline solutions): unstable in alkaline solutions; solubility in water [4]: soluble in water; color change upon exposure to air and light ([4]; rate enhanced in the presence of moisture): gradually turn red upon exposure to air and light |
